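In this assay, cells in 96-well plates receive the compound at five concentrations for 48 hours. Endpoints are linearly interpolated between the surrounding concentrations. Abbreviation: GI50, concentration required for 50% inhibition of growth. TGI: total growth inhibition.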
Columns and labels:
Assay in all cases: DTP human tumour cell line panel, 48 h
HCC-2998 colon = test system: HCC-2998 colon
IGROV1 ovarian = test system: IGROV1 ovarian
UO-31 renal = test system: UO-31 renal
OVCAR-8 ovarian = test system: OVCAR-8 ovarian
SN12C renal = test system: SN12C renal
HCT-15 colon = test system: HCT-15 colon
K-562 leukemia = test system: K-562 leukemia
COLO 205 colon = test system: COLO 205 colon
EKVX NSCLC = test system: EKVX NSCLC
T-47D breast = test system: T-47D breast

| SMILES | TGI (HCC-2998 colon) [µM] | TGI (IGROV1 ovarian) [µM] | TGI (UO-31 renal) [µM] | TGI (OVCAR-8 ovarian) [µM] | TGI (SN12C renal) [µM] | TGI (HCT-15 colon) [µM] | TGI (K-562 leukemia) [µM] | TGI (COLO 205 colon) [µM] | TGI (EKVX NSCLC) [µM] | GI50 (HCC-2998 colon) [µM] | GI50 (T-47D breast) [µM] | TGI (T-47D breast) [µM] | GI50 (IGROV1 ovarian) [µM] | GI50 (UO-31 renal) [µM] | GI50 (OVCAR-8 ovarian) [µM] | GI50 (SN12C renal) [µM] | GI50 (HCT-15 colon) [µM] | GI50 (K-562 leukemia) [µM] | GI50 (COLO 205 colon) [µM] | GI50 (EKVX NSCLC) [µM] |
| --- | --- | --- | --- | --- | --- | --- | --- | --- | --- | --- | --- | --- | --- | --- | --- | --- | --- | --- | --- | --- |
| C/C=C/CP(=O)(c1ccccc1)c1ccccc1 | > 100 | > 100 | > 100 | > 100 | > 100 | > 100 | > 100 | > 100 | > 100 |  |  |  |  |  |  |  |  |  |  |  |
| C[C@@H](Oc1cc(-c2cnn(C3CC4(CCNCC4)C3)c2)cnc1N)c1c(F)ccc(Cl)c1Cl | 3.1 | 7.91 | 4.28 | 12.3 | 7.1 | 3.5 | 1.4 | 0.864 |  | 1.42 | 1.58 | 3.24 | 2.23 | 1.89 | 2.71 | 1.49 | 1.38 | 0.228 | 0.293 |  |
| NC(=S)N/N=C1\C(=O)N(c2cccc([N+](=O)[O-])c2)C(=O)C1C(=O)Nc1cccc([N+](=O)[O-])c1 (stereo not drawn) | > 100 | > 100 | > 100 | > 100 | > 100 | > 100 | > 100 | > 100 | > 100 |  |  |  |  |  |  |  |  |  |  |  |
| Cc1cccc(Oc2ccc(Nc3ncnc4ccc(NC(=O)CN5CCN(C)CC5)cc34)cc2Cl)c1 | 3.04 | 2.38 | 2.35 | 5.68 | 3.44 | 2.76 | 4.33 |  | 2.64 | 1.58 |  |  | 0.673 | 1.1 | 2.11 | 1.72 | 1.35 | 1.61 |  | 1.12 |
| CCN(CC)CCCC(C)N/C(c1cccc(OC)c1)=c1\c(=O)[nH]n(-c2c3ccccc3nc3ccccc23)c(=O)\c1=C(/NC(C)CCCN(CC)CC)c1cccc(OC)c1 (stereo not drawn) | 2.92 | 4.99 | 3.61 | 7.77 | 10.8 | 6.91 | 5.64 | 2.79 |  | 1.44 | 2.16 | 5.97 | 1.52 | 1.31 | 0.937 | 1.74 | 1.02 | 1.41 | 1.22 |  |
| COc1cc(N)ccc1Nc1c2ccccc2nc2ccccc12 | 30.3 | > 59.4 | 22.8 | 36 | 24.9 | 12 | > 28.8 | 18.4 |  | 15.3 | 15.5 | 47.8 | 10.2 | 5.33 | 10.2 | 7.73 | 2.86 | 3.45 | 5.55 |  |
| O=C(Nc1ccc(N=Nc2ccccc2)cc1)Sc1ccccc1C(=O)O | > 100 | 2.48 | > 100 | > 100 | > 100 | > 100 | > 100 | > 100 | > 100 |  |  |  |  |  |  |  |  |  |  |  |
| COc1cc(-c2ccc(-[n+]3nc(-c4ccc([N+](=O)[O-])cc4)nn3-c3ccc([N+](=O)[O-])cc3)c(OC)c2)ccc1-[n+]1nc(-c2ccc([N+](=O)[O-])cc2)nn1-c1ccc([N+](=O)[O-])cc1 | 29.3 | 51.7 | 27.8 | > 71.5 | 40.3 | 49.5 | > 44.6 |  |  | 9.21 | 0.3 | 5.75 | 0.707 | 6.28 | 12.9 | 7.05 | 6.17 | 3.39 |  |  |
| CC(=O)Oc1cc2c(=O)oc3c(OC(C)=O)c(OC(C)=O)c(OC(C)=O)c4c(=O)oc(c1OC(C)=O)c2c34 | > 100 | > 100 | > 100 | > 100 | 61.1 | > 100 | > 100 | > 100 | > 100 |  |  |  |  |  |  |  |  |  |  |  |
| N#CC(c1ccc(Cl)cc1)c1cccc(Cl)n1 (stereo not drawn) | > 100 |  | > 100 | > 100 | > 100 |  | > 100 | > 100 | > 100 |  |  |  |  |  |  |  |  |  |  |  |
| N#Cc1c(C(N)=O)ncn1Cc1ccccc1 | > 100 | > 100 | > 100 | > 100 | > 100 | > 100 | > 100 | > 100 | > 100 |  |  |  |  |  |  |  |  |  |  |  |
| O=C(CC1(O)C(=O)Nc2ccccc21)c1ccc(O)cc1O (stereo not drawn) |  | > 100 | > 100 | > 100 | > 100 | > 100 | > 100 | > 100 | > 100 |  |  |  |  |  |  |  |  |  |  |  |
| Cc1ccc(NC(=O)/C(=N/NC(=O)CC#N)C2C(=O)N(c3ccccc3)N=C2N)cc1C (stereo not drawn) | > 100 | > 100 | > 100 | > 100 | > 100 | > 100 | > 100 | > 100 | > 100 |  |  |  |  |  |  |  |  |  |  |  |
| C[C@]12CC[C@@H]3c4ccc(OCC(=O)O)cc4CC[C@H]3[C@@H]1CCC2=O |  | > 100 | > 100 | > 100 | > 100 | > 100 |  | > 100 | > 100 |  |  | > 100 |  |  |  |  |  |  |  |  |
| Cc1ccc(C2=NN(C)COC2C(F)(F)F)cc1 (stereo not drawn) | > 100 | > 100 | > 100 | > 100 | > 100 | > 100 | > 100 | > 100 | > 100 |  |  |  |  |  |  |  |  |  |  |  |
| COc1ccc(C2c3cc4c(cc3OC(O)(CO)C2C(=O)O)OCO4)c(OC)c1OC (stereo not drawn) (tested in a mixture with another compound) |  | > 100 | > 100 | > 100 | > 100 | > 100 | > 100 | > 100 | > 100 |  |  |  |  |  |  |  |  |  |  |  |
| CO/C=C/c1cc2c(cc1C(OC)OC)OCO2 | > 100 | > 100 | > 100 | > 100 | > 100 |  | > 100 |  | > 100 |  |  |  |  |  |  |  |  |  |  |  |
| CCC12CC[C@H](C#N)N3CCc4c(n(c5ccccc45)C(=O)C1)C32 (stereo partly drawn) | 32.4 | 63.3 | 10.2 | 57.5 | 37.8 | 20.3 | 35 | 43.1 | 64.1 |  |  |  |  |  |  |  |  |  |  |  |
| O=C(O/N=C1/CCC/C1=C\c1ccccc1)c1ccccc1 |  | > 100 |  | > 100 | > 100 | > 100 | > 100 | > 100 | > 100 |  |  |  |  |  |  |  |  |  |  |  |
